Results: patent US8563715B2, “Pyrimidine derivative having cell protecting effect and uses thereof” (Zenyaku Kogyo Kabushikikaisha, priority 2008, dated 2013)

Assays:
[1] = tested on: astrocyte/neuron co-culture; test: Brain cell damage induced by hydrogen peroxide treatment (LDH assay); type: cell-based; conditions: Rattus norvegicus, hydrogen peroxide (250 μM), 24 hours, read-out: 50% inhibition concentration against cell damage in entire co-culture system (EC50 value)
Procedure: (§1) The brain was removed from 1 to 2 day old Wistar rats (Charles River) or Sprague-Dawley (IGS) rats (Charles River), and the cerebral cortex including the hippocampus was excised under ice cooling. After this cerebral cortex was minced, it was digested with papain solution (9 U/ml) containing DNase I (30 U/ml) at 37 degrees Celsius for 15 minutes, dispersing the cells. After further carrying out mechanical dispersing by pipetting, it was passed through a cell strainer with a pore size of 70 μm, and a cell suspension was obtained. Cells derived from 1.4 cerebra were seeded on 150 mm tissue culture dish (Iwaki Glass), and primary culture was carried out at 37 degrees Celsius and 5% CO2 using a D-MEM medium (Invitrogen) containing 10% heat-inactivated fetal calf serum (JRH). One day after the start of the culture, the nonadherent cells were removed, and the primary cultured astrocytes were obtained by continuing the culture for 4 to 5 further days. The primary cultured astrocytes were dispersed by trypsin treating, suspended in cryopreservation solution, and cryopreserved.
(§2) After thawing the cryopreserved primary cultured astrocytes, they were seeded on tissue culture plates (Iwaki Glass), and a confluent astrocyte layer was produced by a further 7 days of secondary culture using a D-MEM medium containing 10% heat-inactivated fetal calf serum. Neurons to be used in the co-culture with the astrocyte layer were obtained from fetal rat cerebrum. Briefly, brains were removed from Wistar rats (Charles River) or Sprague-Dawley (IGS) rats (Charles River) of embryonic age 18.5 days, and the cerebral cortex including the hippocampus was excised under ice cooling. After this cerebral cortex was minced, it was digested in papain solution (9 U/ml) containing DNase I (30 U/ml) at 37 degrees Celsius for 15 minutes, dispersing the cells. After further carrying out mechanical dispersing by pipetting, it was passed through a cell strainer with a pore size of 70 μm, and a cell suspension was obtained. This cell suspension was plated at a density of 1.3×10^5 cells/cm^2 on the astrocyte layer, and a co-culture was carried out using D-MEM/F-12 medium (Invitrogen) containing 10% heat-inactivated fetal calf serum and 5% horse serum (Invitrogen). 2 days after the start of the co-culture, cells were treated for 24 hours with 10 μM cytosine arabinoside in order to suppress the excessive cell proliferation of microglia and the like. 8 to 9 days after the start of the co-culture, cells were used for the test. Additionally, using one portion of the cells, immunofluorescent staining and nuclear staining was carried out with astrocyte recognizing antibodies (anti-GFAP) and neuron recognizing antibodies (anti-MAP2), in order to confirm that the present culture system is a co-culture system of astrocytes and neurons.
(§3) An astrocyte/neuron co-culture cultured on a 96 well plate was used in the test. A predetermined concentration of the test substance and hydrogen peroxide (250 μM) was simultaneously added to the cell culture in each well with continuing cultivation, and analysis was done 24 hours after this treatment. Using an LDH Cytotoxicity Detection Kit (Takara Bio), analysis was carried out in accordance with the included instruction manual, and the damage to the entire co-culture system by the hydrogen peroxide treatment and the protective effect (EC 50 value) of the test substance was evaluated. Further, the cell bodies and the neuronal processes of the neurons were observed by microscope, and the neuroprotective effect was evaluated.

[2] = tested on: rat brain homogenate (lipid peroxide production); test: Antioxidant activity test (rat brain homogenate autoxidation test); type: biochemical; conditions: lipid peroxide production suppression, 2 hours at 37 degrees Celsius, thiobarbituric acid method
Procedure: The cerebrum was removed from 7 to 11 week old male Wistar rats (Nihon Ikagaku) or male Sprague-Dawley (IGS) rats (Charles River), physiological saline was added, and a 20% brain homogenate was made. 4 μl of test compound dissolved in DMSO was mixed with 200 μl of brain homogenate and 200 μl of PBS (−) (diluted 100 times), incubated for 2 hours at 37 degrees Celsius and shaken at a rate of 160 times per minute, thereby producing a lipid peroxide. After cooling for 5 minutes, the produced lipid peroxide was measured as a thiobarbituric acid reactive substance by using the thiobarbituric acid method. Briefly, 100 μl of 8.1% dodecyl sulfate, 750 μl of 20% acetic acid adjusted to a pH of 3.5, and 750 μl of 0.8% thiobarbituric acid were added, and boiled for 60 minutes, and then cooled. Next, 500 μl of distilled water and 2.5 ml of N-butanol/pyridine (15:1) were added and after 5 minutes of shaking, the supernatant was taken after centrifuging for 10 minutes at 3000 rpm, and the absorbance at 532 nm was measured. The number of examples was 2 examples. Calculation was done of the (absorbance at each concentration/absorbance of a solvent control)×100, and after logit transformation, the lipid peroxide production suppression effect (IC 50 value) was calculated as an indicator of antioxidant activity.

[3] = tested on: neurons in astrocyte/neuron co-culture; test: Brain cell damage induced by hydrogen peroxide treatment (neuroprotective effect, microscope observation); type: cell-based; conditions: Rattus norvegicus, hydrogen peroxide (250 μM), 24 hours, read-out: Concentration for complete inhibition of neuronal death
Procedure: as §1, §2, §3

Compound	EC50 [1]	IC50 [2]	EC100 [3]
Nc1c(N2CCOCC2)nc(N2CCN(c3ccccn3)CC2)nc1N1CCOCC1 [Compound 75, 5-amino-4,6-dimorpholino-2-[4-(pyridin-2-yl)-piperazin-1-yl]pyrimidine]	9460 nM	670 nM	–
COc1ccc(CCc2nc(N3CCNCC3)c(N)c(N3CCOCC3)n2)cc1 [Compound 199, 5-amino-2-[2-(4-methoxyphenyl)ethyl]-4-(1-piperazinyl)-6-morpholinopyrimidine]	3050 nM	8120 nM	10 µM
Fc1c(N2CCOCC2)nc(N2Cc3ccccc3C2)nc1N1CCOCC1 [Compound 89, 5-fluoro-2-(isoindolin-2-yl)-4,6-dimorpholinopyrimidine]	530 nM	3480 nM	3 µM
CNc1nc(/C=C/c2ccc(OC)cc2)nc(N2CCOCC2)c1N [Compound 139, 5-amino-2-[2-(4-methoxyphenyl)vinyl]-4-methylamino-6-morpholinopyrimidine]	1150 nM	110 nM	3 µM
COc1ccc(C=Cc2nc(N3CCOCC3)c(N)c(N3CCOCC3)n2)cc1 [Compound 131, 5-amino-2-[2-(4-methoxyphenyl)vinyl]-4,6-dimorpholinopyrimidine]	8990 nM	7040 nM	10 µM
COc1ccc(/C=C/c2nc(N3CCOCC3)c(N)c(N3CCN(C(=O)CN)CC3)n2)cc1 [Compound 176, 5-amino-4-(4-aminomethylcarbonylpiperazin-1-yl)-2-[2-(4-methoxyphenyl)vinyl]-6-morpholinopyrimidine]	2740 nM	2160 nM	10 µM
Fc1c(N2CCOCC2)nc(N2CCN(c3ccccc3)CC2)nc1N1CCOCC1 [Compound 82, 5-fluoro-4,6-dimorpholino-2-(4-phenylpiperazin-1-yl)pyrimidine]	600 nM	9200 nM	3 µM
COc1ccc(/C=C/c2nc(N3CCOCC3)c(N)c(N3CCN(CCN(C)C)CC3)n2)cc1 [Compound 175, 5-amino-2-[2-(4-methoxyphenyl)vinyl]-4-[4-(2-dimethylaminoethyl-piperazin-1-yl)]-6-morpholinopyrimidine]	3240 nM	2080 nM	10 µM
COc1ccc(/C=C/c2nc(NCCN3CCNCC3)c(N)c(N3CCOCC3)n2)cc1 [Compound 173, 5-amino-2-[2-(4-methoxyphenyl)vinyl]-4-morpholino-6-[2-(1-piperazinyl)ethylamino]pyrimidine]	4720 nM	2080 nM	30 µM
Fc1c(N2CCOCC2)nc(N2CCOCC2)nc1N1CCc2ccccc2C1 [Compound 87, 5-fluoro-4-(3,4-dihydro-1H-isoquinolin-2-yl)-2,6-dimorpholinopyrimidine]	680 nM	5780 nM	3 µM
Oc1ccc(N2CCN(c3nc(N4CCOCC4)cc(N4CCOCC4)n3)CC2)cc1 [Compound 30, 2-[4-(4-hydroxyphenyl)piperazin-1-yl]-4,6-dimorpholinopyrimidine]	3010 nM	6840 nM	10 µM
Cc1ccc(N2CCN(c3nc(N4CCOCC4)nc(N4CCOCC4)c3F)CC2)cc1 [Compound 99, 5-fluoro-4-[4-(4-methylphenyl)piperazin-1-yl]-2,6-dimorpholinopyrimidine]	400 nM	7510 nM	1 µM
Nc1ccc(N2CCN(c3nc(N4CCOCC4)nc(N4CCOCC4)c3F)CC2)cc1 [Compound 146, 4-[4-(4-aminophenyl)piperazin-1-yl]-5-fluoro-2,6-dimorpholinopyrimidine]	960 nM	1910 nM	3 µM
Cc1cccc(N2CCN(c3nc(N4CCN(Cc5ccc(N(C)C)cc5)CC4)nc(N4CCOCC4)c3F)CC2)c1C [Compound 192, 5-fluoro-2-[4-(4-dimethylaminobenzyl)piperazin-1-yl]-4-morpholino-6-[4-(2,3-xylyl)piperazin-1-yl]pyrimidine]	300 nM	–	1 µM
COc1ccc(/C=C/c2nc(NCCN)c(N)c(N3CCOCC3)n2)cc1 [Compound 174, 5-amino-4-(2-aminoethylamino)-2-[2-(4-methoxyphenyl)vinyl]-6-morpholinopyrimidine]	3110 nM	–	10 µM
Cc1cccc(N2CCN(c3nc(N4CCOCC4)c(F)c(N4CCN(C(=O)OC(C)(C)C)CC4)n3)CC2)c1C [Compound 179, 4-(4-tert-butoxycarbonylpiperazin-1-yl)-5-fluoro-6-morpholino-2-[4-(2,3-xylyl)piperazin-1-yl]pyrimidine]	340 nM	–	3 µM
CN(C)c1nc(N2CCC(Cc3ccccc3)CC2)nc(N2CCSCC2)c1N [Compound 69, 5-amino-2-(4-benzylpiperidin-1-yl)-4-dimethylamino-6-thiomorpholinopyrimidine]	290 nM	1260 nM	3 µM
COc1ccc(/C=C/c2nc(NCCN3CCOCC3)c(N)c(N3CCOCC3)n2)cc1 [Compound 207, 5-amino-2-[2-(4-methoxyphenyl)vinyl]-4-morpholino-6-(2-morpholinoethylamino)pyrimidine]	5800 nM	–	10 µM
CCCNc1cc(N2CCOCC2)nc(N2CCN(c3ccccc3)CC2)n1 [Compound 56, 4-morpholino-2-(4-phenylpiperazin-1-yl)-6-propylaminopyrimidine]	2950 nM	–	10 µM
CC(=O)Nc1c(N2CCOCC2)nc(N2CCOCC2)nc1N1CCC(Cc2ccccc2)CC1 [Compound 78, 5-acetylamino-4-(4-benzylpiperidin-1-yl)-2,6-dimorpholinopyrimidine]	9750 nM	–	30 µM
Cc1ccc(N2CCN(c3nc(N4CCN(C)CC4)nc(N4CCOCC4)c3F)CC2)cc1 [Compound 151, 5-fluoro-4-[4-(4-methylphenyl)piperazin-1-yl]-2-(4-methylpiperazin-1-yl)-6-morpholinopyrimidine]	980 nM	8410 nM	–
Cc1ccccc1N1CCN(c2nc(N3CCOCC3)c(F)c(N3CCN(c4ccccc4)CC3)n2)CC1 [Compound 128, 5-fluoro-2-[4-(2-methylphenyl)piperazin-1-yl]-6-morpholino-4-(4-phenylpiperazin-1-yl)pyrimidine]	300 nM	–	3 µM
Nc1c(N2CCOCC2)nc(N2CCN(Cc3ccccc3)CC2)nc1N1CCOCC1 [Compound 73, 5-amino-2-(4-benzylpiperazin-1-yl)-4,6-dimorpholinopyrimidine]	10600 nM	690 nM	–
Cc1cccc(N2CCN(c3nc(N4CCNCC4)nc(N4CCOCC4)c3F)CC2)c1C [Compound 178, 5-fluoro-4-morpholino-2-(1-piperazinyl)-6-[4-(2,3-xylyl)piperazin-1-yl]pyrimidine]	480 nM	–	3 µM
COc1ccc(/C=C/c2nc(NCC(N)=O)c(N)c(N3CCOCC3)n2)cc1 [Compound 206, 5-amino-4-carbamoylmethylamino-2-[2-(4-methoxyphenyl)vinyl]-6-morpholinopyrimidine]	4850 nM	–	10 µM
